# Publication PMC8071358, “Targeting of the Essential acpP, ftsZ, and rne Genes in Carbapenem-Resistant Acinetobacter baumannii by Antisense PNA Precision Antibacterials” (Biomedicines, 2021)
# {(KFF)3K-eg1} = H-(KFF)3K peptide (K lysine, F phenylalanine) with eg1 linker (8-amino-3,6-dioxaoctanoyl), on the PNA N terminus (5' end); {NH2} = C-terminal amide
# Assays:
# [1] = system: A. baumannii ATCC 19606 type strain; assay: Antibiotic MIC (CLSI microdilution or gradient strips); type: cell-based, Acinetobacter baumannii; conditions: Acinetobacter baumannii, ATCC19606
# Description: (§1) All minimum inhibitory concentration (MIC) determinations for antibiotics were performed by the standard microdilution method in 96-well microplate (Thermo-Scientific, Roskilde, Denmark) or by gradient test strips (Liofilchem, Italy) according to the Clinical and Laboratory Standards Institute guidelines. Escherichia coli ATCC 25922 was used as control.
# [2] = system: CRAB strain AC1; assay: as above; type: cell-based, Acinetobacter baumannii; conditions: Acinetobacter baumannii, AC1, wound isolate
# Description: as §1
# [3] = system: CRAB strain AC2; assay: as above; type: cell-based, Acinetobacter baumannii; conditions: Acinetobacter baumannii, AC2; wound isolate; CLSI; read-out: MIC, AC2
# Description: as §1
# [4] = system: CRAB strain AC3; assay: as above; type: cell-based, Acinetobacter baumannii; conditions: Acinetobacter baumannii, AC3, sputum isolate
# Description: as §1
# [5] = system: CRAB strain AC44; assay: as above; type: cell-based, Acinetobacter baumannii; conditions: Acinetobacter baumannii, AC44, urine isolate
# Description: as §1
# [6] = system: CRAB strain AC46; assay: as above; type: cell-based, Acinetobacter baumannii; conditions: Acinetobacter baumannii, AC46; sputum isolate; CLSI; read-out: MIC, AC46
# Description: as §1
# [7] = system: CRAB strain AC4; assay: as above; type: cell-based, Acinetobacter baumannii; conditions: Acinetobacter baumannii, AC4; trachea isolate; CLSI; read-out: MIC, AC4
# Description: as §1
# [8] = system: CRAB strain AC5; assay: as above; type: cell-based, Acinetobacter baumannii; conditions: Acinetobacter baumannii, AC5, urine isolate
# Description: as §1
# [9] = system: CRAB strain AC8; assay: as above; type: cell-based, Acinetobacter baumannii; conditions: Acinetobacter baumannii, AC8; sputum isolate; CLSI; read-out: MIC, AC8
# Description: as §1
# [10] = system: CRAB strain AC9; assay: as above; type: cell-based, Acinetobacter baumannii; conditions: Acinetobacter baumannii, AC9; CSF isolate; CLSI; read-out: MIC, AC9
# Description: as §1
# [11] = system: CRAB strain SSI1104; assay: as above; type: cell-based, Acinetobacter baumannii; conditions: Acinetobacter baumannii, SSI1104
# Description: as §1
# [12] = system: CRAB strain AC6; assay: as above; type: cell-based, Acinetobacter baumannii; conditions: Acinetobacter baumannii, AC6; blood isolate; CLSI; read-out: MIC, AC6
# Description: as §1, with “guidelines.” for “guidelines. Escherichia coli ATCC 25922 was used as control.”
# [13] = system: CRAB strain AC7; assay: as above; type: cell-based, Acinetobacter baumannii; conditions: Acinetobacter baumannii, AC7; blood isolate; CLSI; read-out: MIC, AC7
# Description: as §1, with “guidelines.” for “guidelines. Escherichia coli ATCC 25922 was used as control.”
# [14] = system: A. baumannii ATCC 19606; assay: BPP-PNA MIC, broth microdilution; type: cell-based, Acinetobacter baumannii; conditions: 37 °C, 18 h
# Description: (§2) MIC values were determined by broth microdilution according to standard protocols with a few modifications. An overnight bacterial cell culture was diluted to approximately 5 × 10^5 CFU/mL in non-cation-adjusted Muller Hinton Broth (MHB). Then, 180 µL bacterial solutions were dispensed into a low-bind 96-well plate (Thermo-Scientific, Roskilde, Denmark) along with 20 µL of BPP-PNA compound (BPP-PNA was serially diluted 2-fold from 16 to 0.5 µM in a 96-well plate). The plate was incubated in a Tecan Genios plate reader (GMI, Minnesota, Ramsey, USA) at 37 °C for 18 h with linear shaking, OD was measured every 20 min at 595 nm. […] The minimum bactericidal concentration (MBC) values were determined by plating 10 µL samples from the wells with no visible turbidity onto Mueller–Hinton agar plates. The MBC is determined the lowest concentration of BPP-PNA that reduces the viability of the initial bacterial inoculum by ≥99.9% (3-log reduction in CFU/mL). A minimum of two independent experiments (biological replicates) of the assay were conducted, and two technical replicates were used in each experiment for each bacterium, compound, and concentration.
# [15] = system: CRAB strain AC44; assay: BPP-PNA MIC, broth microdilution; type: cell-based, Acinetobacter baumannii; conditions: 37 °C, 18 h
# Description: as §2
# [16] = system: CRAB strains; assay: BPP-PNA MIC/MBC summarised over the panel of strains; type: cell-based, Acinetobacter baumannii
# Description: as §2
# [17] = system: HepG2 hepatocytes; assay: HepG2 cell toxicity (CellTiter-Glo, ATP); type: cell-based; conditions: 10 µM, ATP level
# Description: The cell toxicity of selected BPP-PNAs was determined using HepG2 hepatocytes grown in DMEM (low glucose) medium supplemented with 100 U/mL penicillin, 100 µg/mL streptomycin, 1% glutamax, and 10% fetal bovine serum (FBS) (Thermofisher Scientific, Roskilde, Denmark), at 37 °C with 5% CO2. Then, 7000–10,000 cells were seeded in each well of a 96-well plate. After 48 h, the BPP-PNAs were added (six replicates for each concentration), followed by overnight incubation. Total amount of adenosine triphosphate (ATP) was used as a measure of cell viability, according to the CellTiter-Glo luminescent cell viability assay (Promega, Madison, WI, USA) kit. BPP-PNAs concentrations ranged from 2.5 to 20 µM. Potassium dichromate (100 µM) was used as a positive control.
# [18] = system: CRAB strain AC2; assay: BPP-PNA MIC, broth microdilution; type: cell-based, Acinetobacter baumannii; conditions: 37 °C, 18 h
# Description: as §2
# [19] = system: A. baumannii SSI1104; assay: BPP-PNA MIC, broth microdilution; type: cell-based, Acinetobacter baumannii; conditions: 37 °C, 18 h
# Description: as §2, with “An overnight bacterial cell culture was diluted to approximately 5 × 10^5 CFU/mL in non-cation-adjusted Muller Hinton Broth (MHB).” left out
# [20] = system: CRAB strain AC46; assay: BPP-PNA MIC, broth microdilution; type: cell-based, Acinetobacter baumannii; conditions: 37 °C, 18 h
# Description: as §2, with “An overnight bacterial cell culture was diluted to approximately 5 × 10^5 CFU/mL in non-cation-adjusted Muller Hinton Broth (MHB).” left out
# [21] = system: P. aeruginosa (PAO1); assay: BPP-PNA MIC, broth microdilution; type: cell-based, Pseudomonas aeruginosa; conditions: non-target species; MHB without cation (Oxoid)
# Description: as §2
# [22] = system: E. coli K-12 MG1655; assay: BPP-PNA MIC, broth microdilution; type: cell-based, Escherichia coli; conditions: non-target species; MHB without cation (Oxoid)
# Description: as §2
# [23] = system: acpP mRNA in CRAB AC44 strain; assay: Real-time RT-PCR of target mRNA; type: cell-based, Acinetobacter baumannii; conditions: AC44, 1 h treatment, normalised to 16S rRNA, against untreated control
# Description: Real time RT-PCR was used to determine the relative expression level of the target gene upon treatment with match BPP-PNA compared to mismatch and untreated controls. The primers for q-PCR were designed to match conserved gene sequences using the AlleleID7 software (Premier Biosoft, San Francisco, CA, USA) (Table S6). Additionally, for more accurate expression of the genes at treatment and untreated conditions, the efficacy of target gene and internal controls primers was calculated by using three consecutive dilutions of the sample cDNA and drawing a standard curve through the slope of the line. […] Statistical analysis was carried out on the gene expression levels normalized to the chosen reference gene (16S rRNA) through −∆Ct analysis. The relative expression of each gene was determined by the 2^−ΔΔCT method. We used the GenEx standard (NormFinder and GeNorm) software (bioMCC, Germany) for analyzing the data.
# An overnight culture of bacteria was diluted 1:100 in MHB medium and was grown with shaking (160 rpm) at 37 °C to reach the OD595 = 0.2. Then, the bacterial culture was treated with different concentrations of BPP-PNA for 1 h and the bacterial cells were harvested by centrifugation and the cell pellet used for RNA extraction.
# Total RNA was isolated using the GeneJET RNA purification kit (ThermoFisher Scientific, Roskilde, Denmark) following the manufacturer’s protocol. RNA samples were treated with DNase for 30 min at 37 °C (Turbo DNA-free kit Ambion/Applied Biosystems, Carlsbad, CA, USA) and then incubated at 72 °C for 5 min to inactivate the DNase. The genomic DNA (gDNA) contamination was checked by polymerase chain reaction (PCR). RNA concentrations were determined by Nanodrop spectrophotometry at 260 nm and purity was checked by determining the absorption ratios at 260/280 nm. Total RNA (0.5 μg) was reverse-transcribed to yield cDNA as template for real-time quantitative PCR using the Quanti Tect reverse transcription kit (Qiagen, Copenhagen, Denmark). The cDNA was diluted 1:50 and used as a template in the reaction. […]
# [24] = Sigma MHB medium without cation, ~5 × 10^5 CFU/mL, OD595 < 0.1
# [25] = Sigma MHB medium without cation
# [26] = Oxoid MHB medium, cation adjusted
Compound,MIC [1] [µg/mL],MIC [2] [µg/mL],MIC [3] [µg/mL],MIC [4] [µg/mL],MIC [5] [µg/mL],MIC [6] [µg/mL],MIC [7] [µg/mL],MIC [8] [µg/mL],MIC [9] [µg/mL],MIC [10] [µg/mL],MIC [11] [µg/mL],MIC [12] [µg/mL],MIC [13] [µg/mL],"MIC, ATCC 19606 ([14]; MHB without cation (Oxoid)) [µM]","MIC, ATCC 19606 [14, 24] [µM]","MIC, AC2 [18, 25] [µM]","MIC, AC44 [15, 25] [µM]","MIC, SSI 1104 [19, 25] [µM]","MIC, AC46 [20, 25] [µM]",also measured
CC(C)(O/N=C(\C(=O)N[C@@H]1C(=O)N2C(C(=O)[O-])=C(C[n+]3ccccc3)CS[C@H]12)c1csc(N)n1)C(=O)O [Ceftazidime],8,64,64,64,256,128,64,32,64,32,> 8,32,64,–,–,–,–,–,–,–
"H-(R-Ahx-R)4-Ahx-GAGGCCATGAC-NH2 (N-terminal (R-Ahx-R)4-Ahx peptide, C-terminal amide, backbone not given here, further chemistry not given here) [PNA 5613, anti-ftsZ (R-Ahx-R)4-Ahx-PNA, match]",–,–,–,–,–,–,–,–,–,–,–,–,–,>16,–,–,–,–,–,"MIC, AC44 ([15]; MHB without cation (Oxoid)): >16 µM; MIC ([16]; text on Table 2, (R-Ahx-R)4 BPP): > 16 µM; toxicity in HepG2 [17]: very significant toxicity"
CN(C)c1cc(NC(=O)CNC(C)(C)C)c(O)c2c1C[C@H]1C[C@H]3[C@H](N(C)C)C(O)=C(C(N)=O)C(=O)[C@@]3(O)C(O)=C1C2=O [Tigecycline],0.5,0.5,1,0.5,1,0.5,1,1,1,1,1,1,1,–,–,–,–,–,–,–
C[C@@H](O)[C@H]1C(=O)N2C(C(=O)O)=C(S[C@@H]3CN[C@H](C(=O)N(C)C)C3)[C@H](C)[C@H]12 [Meropenem],1,4,16,4,16,16,16,16,16,16,> 16,16,16,–,–,–,–,–,–,–
"H-(KFF)3K-eg1-ATATCGCTCAC-NH2 (all peptide nucleic acid (PNA), 5' {(KFF)3K-eg1}, 3' {NH2}) [PNA 5652, anti-acpP peptide-PNA conjugate, match, +40 to +50]",–,–,–,–,–,–,–,–,–,–,–,–,–,4,4,4,4,4,4,"MIC, SSI 1104 ([19]; MHB without cation (Oxoid)): 4 µM; MIC, P. aeruginosa (PAO1) [21]: 16 µM; MIC, E. coli K-12 MG1655 [22]: 16 µM; MIC (complete growth inhibition) over the CRAB strains tested ([16]; several A. baumannii strains): 4 µM"
"H-(KFF)3K-eg1-TGACTTGTCAC-NH2 (all peptide nucleic acid (PNA), 5' {(KFF)3K-eg1}, 3' {NH2}) [PNA 5640, anti-acpP mismatch control of 5639]",–,–,–,–,–,–,–,–,–,–,–,–,–,–,4,4,4,4,4,"MIC, ATCC 19606 [14, 26]: 4 µM; MIC, AC2 [18, 26]: 4 µM; MIC, AC44 [15, 26]: 4 µM; MIC, SSI 1104 [19, 26]: 4 µM; MIC, AC46 [20, 26]: 4 µM; reduction in the level of the acpP mRNA [23]: 4 fold"
